Each block holds one compound with its values, some of them ahead of it. Active and inactive are the calls of the source.
Key:
[1] = viability loss in HepG2 hepatoma cells – cell-based, ATP luminescence, cherry-pick, activator set 2, cytotoxicity control, dose response (AID 1053143); assay type: functional
[2] = cells; assay type: functional, cell-based
[3] = target: Nuclear receptor subfamily 0 group B member 1 (Homo sapiens, UniProt P51843); assay type: functional, cell-based;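 also: HEK293T cells transfected with SF-1 and DAX-1 plus StAR promoter luciferase reporter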
Chain of Nuclear receptor subfamily 0 group B member 1 (P51843 whole entry): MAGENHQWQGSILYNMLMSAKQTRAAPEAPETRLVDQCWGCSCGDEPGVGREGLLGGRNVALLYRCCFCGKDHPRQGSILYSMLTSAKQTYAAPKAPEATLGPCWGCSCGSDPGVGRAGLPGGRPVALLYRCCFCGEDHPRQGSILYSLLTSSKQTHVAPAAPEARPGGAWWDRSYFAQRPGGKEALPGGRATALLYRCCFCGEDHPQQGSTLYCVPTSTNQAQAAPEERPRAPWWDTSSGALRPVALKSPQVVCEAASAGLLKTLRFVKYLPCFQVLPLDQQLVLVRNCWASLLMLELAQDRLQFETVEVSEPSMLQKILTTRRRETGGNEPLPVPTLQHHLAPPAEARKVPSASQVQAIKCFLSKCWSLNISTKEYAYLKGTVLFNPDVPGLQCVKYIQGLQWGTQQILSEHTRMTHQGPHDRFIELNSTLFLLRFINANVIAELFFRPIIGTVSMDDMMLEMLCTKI

[4] = target: T1, Histone-lysine N-methyltransferase NSD2 (Homo sapiens, UniProt O96028); assay type: biochemical
T1 sequence (O96028 whole entry): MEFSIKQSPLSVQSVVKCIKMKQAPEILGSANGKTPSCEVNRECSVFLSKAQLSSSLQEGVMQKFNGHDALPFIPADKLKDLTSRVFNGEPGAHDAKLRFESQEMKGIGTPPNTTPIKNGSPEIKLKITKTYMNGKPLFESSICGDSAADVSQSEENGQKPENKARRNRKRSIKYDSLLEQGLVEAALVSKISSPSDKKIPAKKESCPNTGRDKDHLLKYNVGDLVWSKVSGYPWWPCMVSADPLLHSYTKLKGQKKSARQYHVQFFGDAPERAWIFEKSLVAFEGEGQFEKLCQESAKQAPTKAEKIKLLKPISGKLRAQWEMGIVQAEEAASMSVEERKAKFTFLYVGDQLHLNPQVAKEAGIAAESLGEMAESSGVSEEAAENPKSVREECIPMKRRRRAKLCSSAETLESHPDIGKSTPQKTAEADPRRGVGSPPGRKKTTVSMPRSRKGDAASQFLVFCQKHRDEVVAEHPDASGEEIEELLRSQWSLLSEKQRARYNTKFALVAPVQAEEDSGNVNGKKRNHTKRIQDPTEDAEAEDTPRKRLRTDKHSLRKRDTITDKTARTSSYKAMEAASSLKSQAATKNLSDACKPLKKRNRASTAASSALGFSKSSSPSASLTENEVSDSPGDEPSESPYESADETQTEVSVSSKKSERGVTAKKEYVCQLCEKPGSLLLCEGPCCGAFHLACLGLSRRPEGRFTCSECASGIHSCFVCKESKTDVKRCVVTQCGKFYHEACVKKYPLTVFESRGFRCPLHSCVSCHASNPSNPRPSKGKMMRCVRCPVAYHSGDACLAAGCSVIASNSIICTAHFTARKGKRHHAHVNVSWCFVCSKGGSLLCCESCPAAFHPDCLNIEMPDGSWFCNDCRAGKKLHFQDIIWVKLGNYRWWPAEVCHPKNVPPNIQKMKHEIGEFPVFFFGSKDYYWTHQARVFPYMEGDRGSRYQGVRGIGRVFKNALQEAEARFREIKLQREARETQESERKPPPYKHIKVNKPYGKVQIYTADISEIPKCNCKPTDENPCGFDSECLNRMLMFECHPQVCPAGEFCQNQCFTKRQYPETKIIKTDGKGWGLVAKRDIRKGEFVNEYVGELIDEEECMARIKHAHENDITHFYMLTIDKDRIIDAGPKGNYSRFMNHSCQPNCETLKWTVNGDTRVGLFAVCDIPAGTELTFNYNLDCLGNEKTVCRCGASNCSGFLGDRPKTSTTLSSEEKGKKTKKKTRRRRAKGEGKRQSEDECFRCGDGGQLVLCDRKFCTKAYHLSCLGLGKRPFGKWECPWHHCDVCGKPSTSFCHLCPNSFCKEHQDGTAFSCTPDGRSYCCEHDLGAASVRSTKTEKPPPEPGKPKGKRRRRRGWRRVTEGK

[5] = OVCAR-3 cell viability loss – plate reader, dry powder samples, PAX8 inhibitor project, dose response (AID 743044); assay type: functional, cell-based
[6] = IGROV1 cell killing – plate reader, dry powder samples, PAX8 inhibitor project, dose response (AID 743043); assay type: functional, cell-based; settings: IGROV-1
[7] = OVCAR8 cell viability loss – plate reader, dry powder samples, PAX8 project, dose response (AID 743197); assay type: functional, cell-based; settings: OVCAR-8
[8] = target: Paired box protein Pax-8 (Homo sapiens, UniProt Q06710); assay: PAX8 transcriptional activity inhibition in RMG-I – RMG-I cells, luciferase, cherry-pick, dose response (AID 687027); assay type: functional, cell-based;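 also: luciferase reporter driven by Pax8 target thyroperoxidase promoter measured by SteadyGlo luminescence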
Chain of Paired box protein Pax-8 (Q06710 whole entry): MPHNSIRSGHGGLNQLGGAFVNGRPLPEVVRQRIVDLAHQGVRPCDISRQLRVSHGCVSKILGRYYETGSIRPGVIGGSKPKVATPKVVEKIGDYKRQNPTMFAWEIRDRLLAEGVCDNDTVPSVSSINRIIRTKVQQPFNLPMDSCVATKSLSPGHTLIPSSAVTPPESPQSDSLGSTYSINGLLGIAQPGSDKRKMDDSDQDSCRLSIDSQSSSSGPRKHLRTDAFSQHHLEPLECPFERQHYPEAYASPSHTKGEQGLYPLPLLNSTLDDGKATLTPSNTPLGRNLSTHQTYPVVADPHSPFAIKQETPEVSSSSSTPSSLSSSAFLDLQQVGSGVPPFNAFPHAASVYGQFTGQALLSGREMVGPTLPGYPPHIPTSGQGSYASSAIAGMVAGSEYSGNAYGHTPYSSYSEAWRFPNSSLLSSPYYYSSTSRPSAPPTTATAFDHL

[9] = general cell-killing toxicity readout – plate reader, dry powder samples, cytotoxicity control for PAX8 inhibitor project, dose response (AID 743021); assay type: functional, cell-based
[10] = tested on: Vero; assay: viability loss in Vero cells – cell-based, plate reader, cherry-pick samples, cytotoxicity control, dose response (AID 687020); assay type: functional; settings: Chlorocebus sabaeus
[11] = tested on: A549; assay: viability loss in A549 cells – cell-based, plate reader, cherry-pick samples, cytotoxicity control, dose response (AID 687028); assay type: functional; settings: Homo sapiens
[12] = viability loss in HeLa cells – cytotoxicity control for MgcRacGAP inhibitor project, dose response (AID 624300); assay type: functional
[13] = target: T2, Rac GTPase-activating protein 1 (Homo sapiens, UniProt Q9H0H5); assay: blockers of MgcRacGAP-driven Rac1 GTP hydrolysis – biochemical, ADP Hunter fluorescence, primary and confirmatory, confirmation (AID 624330); assay type: functional
T2 sequence (Q9H0H5 whole entry): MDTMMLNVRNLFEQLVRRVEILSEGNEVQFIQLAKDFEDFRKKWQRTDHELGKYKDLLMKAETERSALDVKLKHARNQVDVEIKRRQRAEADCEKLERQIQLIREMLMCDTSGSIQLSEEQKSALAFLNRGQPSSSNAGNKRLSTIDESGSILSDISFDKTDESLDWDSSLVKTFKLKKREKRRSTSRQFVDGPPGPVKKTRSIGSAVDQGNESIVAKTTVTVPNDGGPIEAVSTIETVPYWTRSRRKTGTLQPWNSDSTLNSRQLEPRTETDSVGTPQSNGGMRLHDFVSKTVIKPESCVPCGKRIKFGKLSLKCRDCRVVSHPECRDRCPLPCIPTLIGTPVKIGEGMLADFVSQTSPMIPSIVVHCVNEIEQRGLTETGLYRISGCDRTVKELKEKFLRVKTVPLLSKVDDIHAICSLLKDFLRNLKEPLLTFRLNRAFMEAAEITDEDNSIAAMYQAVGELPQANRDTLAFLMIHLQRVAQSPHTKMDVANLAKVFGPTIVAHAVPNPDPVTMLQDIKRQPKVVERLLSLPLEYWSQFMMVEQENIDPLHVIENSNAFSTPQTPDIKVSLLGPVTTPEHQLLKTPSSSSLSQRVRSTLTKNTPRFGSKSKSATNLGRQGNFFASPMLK

[14] = blockers of HIV-1 ZM109 envelope-driven cell-cell fusion – HeLa effector, CEM target cells, luciferase, cherry-pick, dose response (AID 652058); assay type: functional, cell-based;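 also: luciferase signal from HIV-1 Env mediated cell-cell fusion of effector and target cells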
[15] = HIV-1 AD8 envelope cell-cell fusion blockers – cherry-pick, dose response (AID 652062); assay type: functional, cell-based;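 also: luciferase signal from cell-cell fusion driven by HIV-1 clade B AD8 Env; potency is for inhibitors of fusion seen as a drop in luminescence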
[16] = viability loss in CEM21 cells – cell-based, CellTiter-Glo luminescence, cherry-picked, cytotoxicity control for viral fusion inhibitor project, dose response (AID 652042); assay type: functional;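 also: potency for signal decrease meaning cytotoxicity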
[17] = off-target signal loss in HeLa-CEM21 co-culture – HeLa F-luc CTL cells, cherry-picked, counter-screen for HIV-1 Env fusion inhibitor project, dose response (AID 652040); assay type: functional, cell-based;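 also: potency for signal decrease marking cytotoxic or nonspecific inhibition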
[18] = blockers of HIV-1 envelope-mediated cell-cell fusion – cherry-pick, dose response (AID 652057); assay type: functional, cell-based
[19] = target: T3, Methionyl-tRNA synthetase, putative (Trypanosoma brucei brucei, UniProt Q38C91); assay type: functional, Trypanosoma brucei brucei strain 927/4 GUTat10.1
T3 sequence (Q38C91 whole entry): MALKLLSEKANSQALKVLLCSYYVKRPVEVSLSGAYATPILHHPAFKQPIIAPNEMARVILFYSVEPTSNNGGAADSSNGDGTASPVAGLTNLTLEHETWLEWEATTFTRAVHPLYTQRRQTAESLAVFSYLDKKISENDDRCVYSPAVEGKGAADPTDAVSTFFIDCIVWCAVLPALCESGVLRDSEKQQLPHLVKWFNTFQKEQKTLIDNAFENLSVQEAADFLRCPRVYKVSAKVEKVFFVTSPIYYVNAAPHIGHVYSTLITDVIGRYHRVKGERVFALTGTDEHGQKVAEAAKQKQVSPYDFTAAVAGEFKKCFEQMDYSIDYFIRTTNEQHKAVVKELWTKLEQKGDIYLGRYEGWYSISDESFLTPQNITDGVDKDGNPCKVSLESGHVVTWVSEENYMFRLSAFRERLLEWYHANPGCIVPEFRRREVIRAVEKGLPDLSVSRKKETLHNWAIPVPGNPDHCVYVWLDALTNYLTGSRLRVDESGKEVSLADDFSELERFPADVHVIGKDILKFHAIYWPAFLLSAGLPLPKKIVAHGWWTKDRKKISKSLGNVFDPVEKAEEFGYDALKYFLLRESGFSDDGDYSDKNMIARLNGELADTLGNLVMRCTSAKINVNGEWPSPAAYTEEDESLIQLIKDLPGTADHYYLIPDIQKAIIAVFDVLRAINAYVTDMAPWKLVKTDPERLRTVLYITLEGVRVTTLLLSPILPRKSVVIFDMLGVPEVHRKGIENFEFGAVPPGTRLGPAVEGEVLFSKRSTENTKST

[20] = target: T3, Methionyl-tRNA synthetase, putative; assay type: functional, Trypanosoma brucei brucei strain 927/4 GUTat10.1; remark: listed apart in the source
[21] = Counterscreen for inhibitors of Trypanosoma brucei methionyl tRNA synthetase (MetRS): Luminescence-based cell-based high throughput dose response assay to identify compounds that are cytotoxic to Jurkat human T lymphocyte cells.; assay type: functional
[22] = target: Beta-galactosidase (Escherichia coli, UniProt Q8VNN2); assay: Dose response counterscreen for EBI2 assay utilizing the enzyme, b-galactosidase.; assay type: functional
Chain of Beta-galactosidase (Q8VNN2 whole entry): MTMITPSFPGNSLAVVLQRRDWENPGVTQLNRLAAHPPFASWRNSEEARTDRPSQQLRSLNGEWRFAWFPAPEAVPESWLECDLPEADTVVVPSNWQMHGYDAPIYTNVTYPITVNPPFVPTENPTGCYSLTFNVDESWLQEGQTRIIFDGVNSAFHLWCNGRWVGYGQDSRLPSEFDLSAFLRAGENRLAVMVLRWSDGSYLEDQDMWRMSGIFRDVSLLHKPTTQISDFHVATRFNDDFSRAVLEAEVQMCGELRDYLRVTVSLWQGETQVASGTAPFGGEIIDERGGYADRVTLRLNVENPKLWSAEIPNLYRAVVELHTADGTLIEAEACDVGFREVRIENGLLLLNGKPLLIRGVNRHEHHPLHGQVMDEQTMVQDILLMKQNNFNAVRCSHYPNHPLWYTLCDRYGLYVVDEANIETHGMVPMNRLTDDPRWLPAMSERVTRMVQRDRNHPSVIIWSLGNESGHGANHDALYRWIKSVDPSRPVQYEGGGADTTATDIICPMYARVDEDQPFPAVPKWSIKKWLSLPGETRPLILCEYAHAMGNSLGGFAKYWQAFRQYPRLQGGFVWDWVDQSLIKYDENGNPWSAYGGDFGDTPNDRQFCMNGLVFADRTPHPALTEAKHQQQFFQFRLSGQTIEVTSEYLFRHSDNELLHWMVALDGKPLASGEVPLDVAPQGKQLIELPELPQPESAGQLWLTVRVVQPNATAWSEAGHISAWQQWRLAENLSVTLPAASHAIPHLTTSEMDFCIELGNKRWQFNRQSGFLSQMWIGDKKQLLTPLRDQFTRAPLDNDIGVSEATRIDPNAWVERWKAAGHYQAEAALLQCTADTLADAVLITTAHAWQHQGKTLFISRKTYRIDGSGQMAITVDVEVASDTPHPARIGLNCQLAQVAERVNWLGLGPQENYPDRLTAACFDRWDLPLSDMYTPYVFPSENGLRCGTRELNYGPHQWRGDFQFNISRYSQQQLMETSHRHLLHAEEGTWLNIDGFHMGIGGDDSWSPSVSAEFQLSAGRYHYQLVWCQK

[23] = general mammalian cell viability loss – activator set, cherry-pick, cytotoxicity control for miR-122 modulator project, dose response (AID 720690); assay type: functional, cell-based;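 also: HEK293T human cells scored for general mammalian cytotoxicity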
[24] = activation of miR-122 Renilla sensor silencing – cell-based, Huh7 psiCHECK-miR122, Renilla luciferase, cherry-picked, dose response (AID 651956); assay type: functional;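 also: huh7 hepatoma cells stably carrying a psiCHECK-2 miR-122 sensor plasmid; renilla luciferase signal reporting endogenous miR-122 activity after 48 h compound exposure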
[25] = toxicity toward HepG2 liver cells – cell-based, plate reader, cherry-pick, antagonist series, cytotoxicity control, dose response (AID 743416); assay type: functional
[26] = viability loss in HEK293 cells – cell-based, plate reader, cherry-picked samples, cytotoxicity control, dose response (AID 743446); assay type: functional
[27] = blockade of melanocortin 4 receptor signaling – cell-based, plate reader, cherry pick, counter-screen for LGR2 antagonist project, dose response (AID 743444); assay type: functional;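 also: transfected HEK 293 cells stimulated with alpha-MSH peptide; potency of inhibitors of the alpha-MSH evoked signal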
[28] = A549 cell cytotoxicity, dose response, cytotoxicity control, plate reader, cherry-pick, antagonist series (AID 743412); assay type: functional, cell-based
[29] = blockers of bursicon-stimulated LGR2 cAMP reporter – cell-based, HEK293, CRE-luciferase reporter, cherry pick, set 2, dose response (AID 743343); assay type: functional;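 also: transfected cells were stimulated with diluted bursicon conditioned medium after compound addition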

SMILES: CN1CCN(Cc2cc(Cl)c3cccnc3c2OC(=O)c2cccs2)CC1
AC50 [1]: 26 µM (active)

SMILES: Cc1ccccc1-c1nnc2n1N=C(c1ccc(O)c(O)c1)CS2
IC50 [2]: > 67.6 µM (inactive)
IC50 [3]: > 67.6 µM (inactive)
AC50 [4]: > 20 µM (inactive)

SMILES: O=C(c1ccc(F)cc1)N1CC(=O)N2[C@@H](CO)[C@@H](c3ccc(C#Cc4ccc(F)cc4)cc3)[C@@H]2C1
AC50 [5]: 7.81 µM (active)
AC50 [6]: 23 µM (active)
AC50 [7]: > 70 µM (inactive)
AC50 [8]: 9.4 µM (active)
AC50 [9]: 2.16 µM (active)

SMILES: CC1CCCN(CCOc2cccc(Oc3ccccc3)c2)C1 (centres undefined)
AC50 [10]: 2.31 µM (active)
AC50 [11]: 1.65 µM (active)

IC50 [13]: 148 µM (active)
SMILES: CCOc1ccc(/C=N/NC(=O)NC23CC4CC(CC(C4)C2)C3)cc1O
CC50 [12]: 100 µM (active)

SMILES: S=C(NCCc1ccccc1)N1Cc2cc(N3CCCCC3)ccc2-n2nncc2C1
AC50 [14]: 9.8 µM (active)
AC50 [15]: 9.73 µM (active)
AC50 [16]: 60.7 µM (active)
AC50 [17]: 7.92 µM (active)
AC50 [18]: 5.34 µM (active)

SMILES: COc1cccc(-c2c[nH]c(C(O)c3cc(Cl)cc(Cl)c3)n2)c1 (centres undefined)
IC50 [19]: 4.9 µM (active)
IC50 [20]: 10.3 µM (inactive)
IC50 [21]: 83.3 µM (inactive)

SMILES: CCC1CN(S(=O)(=O)c2ccc3c(c2)NC(=O)CC(=O)N3)c2cc(Cl)ccc2O1 (centres undefined)
AC50 [10]: 27.7 µM (active)
AC50 [11]: 28.5 µM (active)

SMILES: O=C(COc1ccc(Cl)cc1)N1CCN(C/C=C/c2ccccc2)CC1
IC50 [22]: > 80 µM (inactive)

SMILES: COc1ccccc1NC(=O)N1CCCCN2[C@H](CO)[C@H](c3ccc(C#CC4CCCC4)cc3)[C@H]2C1
AC50 [23]: 12.6 µM (active)
AC50 [24]: 21.9 µM (active)

SMILES: O/N=C/c1ccn(-c2ccc(Br)cc2)c1
IC50 [2]: > 67.5 µM (inactive)
IC50 [3]: > 67.5 µM (inactive)

SMILES: CN(C)C(=O)c1ccc(-c2cc3onc(-c4ccccc4)c3c(=O)n2C)cc1
AC50 [1]: 26 µM (active)

SMILES: CCN1C(=O)C(CC(=O)Nc2ccc(F)cc2)N(CCc2ccc(OC)cc2)C1=S (centres undefined)
IC50 [19]: 10.5 µM (inactive)
IC50 [20]: 13.2 µM (inactive)
IC50 [21]: 83.3 µM (inactive)

SMILES: Oc1nc2ccccc2n1C1CCN(C(CCc2ccccc2)c2nnnn2-c2ccc3c(c2)OCCO3)CC1 (centres undefined)
AC50 [25]: 16.5 µM (active)
AC50 [26]: 14.5 µM (active)
AC50 [8]: 1.54 µM (active)
AC50 [27]: 2.86 µM (active)
AC50 [28]: 7.65 µM (active)
AC50 [9]: 10.8 µM (active)
AC50 [29]: 9.66 µM (active)

— ChEMBL document CHEMBL1201862, “PubChem BioAssay data set” (2004)
